Experimental data published in US6362212B1, “Oxime derivative and bactericide containing the same as active ingredient” (Shionogi & Company, Ltd., priority 1994, dated 2002).

What was measured:
[1] = tested on: Erysiphe graminis f. sp. tritici; assay: Controlling effect on Erysiphe graminis f. sp. tritici by foliage application (pot experiment); format: in vivo; conditions: foliage spray on wheat (cv. NORIN No. 61) seedlings, infected area after 10 days in greenhouse at 20° C.
Procedure: The following Test Examples illustrate the effects of the fungicide of the present invention. (I. Controlling effects on various plant diseases by foliage application (pot experiment)) A test compound was dissolved in a small amount of N,N-dimethylformamide, and the solution was diluted to a given concentration with distilled water containing a spreader. Thus, a liquid sample to be tested was prepared. The liquid sample was sprayed to test plants, and 24 hours thereafter, pathogens were inoculated by the method described below. […] The seeds of wheat (cv.: NORIN No. 61) were sown in plastic cups (each 9 cm in diameter), followed by cultivation for 2 to 3 weeks. The test compound in the form of a solution or suspension was sprayed to the seedlings, and conidia of Erysiphe graminis f. sp. tritici cultured on wheat leaves were dropped on the test plants to inoculate the plants with the pathogen. After the inoculation, the plants were kept in a greenhouse at 20° C. for 10 days. The infected area on the leaf was observed, and the percent control was calculated.

Sphaerotheca fuliginea = assay: Controlling effect on Sphaerotheca fuliginea by foliage application (pot experiment); format: in vivo; conditions: foliage spray on cucumber (cv. TSUKUBASHIROIBO) first leaves, infected area after 10 days in greenhouse at 20° C.
Procedure: The following Test Examples illustrate the effects of the fungicide of the present invention. (I. Controlling effects on various plant diseases by foliage application (pot experiment)) A test compound was dissolved in a small amount of N,N-dimethylformamide, and the solution was diluted to a given concentration with distilled water containing a spreader. Thus, a liquid sample to be tested was prepared. The liquid sample was sprayed to test plants, and 24 hours thereafter, pathogens were inoculated by the method described below. […] Seeds of cucumber ([…]) were sown in plastic cups (each 9 cm in diameter), followed by cultivation for 2 to 3 weeks. The liquid test sample in the form of a solution or suspension was sprayed on the surface of their first leaves. The pathogen was inoculated to the leaves by spraying a conidia suspension of Sphaerotheca fuliginea which had been cultured on the cucumber leaves. After the inoculation, the plants were kept in a greenhouse at 20° C. for 10 days. Then, the infected area on the leaf was observed, and the percent control was calculated.

CON=C(c1ccccc1COc1ccc(F)cc1)c1nccn1C (single isomer, unassigned) [104B]
Controlling effect on ErYsiphe graminis f. sp. tritici by foliage application at 500 ppm (percent control) [1]: 70 percent control

CON=C(c1ncon1)c1ccccc1COc1ccccc1Cl [compound 805]
Controlling effect on Sphaerotheca fuliginea by foliage application at 500 ppm (percent control) (Sphaerotheca fuliginea): 97 percent control

CON=C(C1=NCCO1)c1ccccc1COc1ccc(C)cc1 [compound 1312]
Controlling effect on Sphaerotheca fuliginea by foliage application at 500 ppm (percent control) (Sphaerotheca fuliginea): 70 percent control

CON=C(c1cc(C)no1)c1ccccc1COc1ccc(Cl)cc1C (single isomer, unassigned) [641B]
Controlling effect on ErYsiphe graminis f. sp. tritici by foliage application at 500 ppm (percent control) [1]: 90 percent control
Controlling effect on Sphaerotheca fuliginea by foliage application at 500 ppm (percent control) (Sphaerotheca fuliginea): 100 percent control

CON=C(C1=NCCO1)c1ccccc1Oc1ncc(C(F)(F)F)cc1Cl [compound 1829]
Controlling effect on ErYsiphe graminis f. sp. tritici by foliage application at 500 ppm (percent control) [1]: 90 percent control

CON=C(c1ccccc1COc1ccccc1C)c1nccn1C (single isomer, unassigned) [112B]
Controlling effect on Sphaerotheca fuliginea by foliage application at 500 ppm (percent control) (Sphaerotheca fuliginea): 90 percent control

CON=C(C1=NCCN1C)c1ccccc1COc1ccccc1 [compound 1101]
Controlling effect on ErYsiphe graminis f. sp. tritici by foliage application at 500 ppm (percent control) [1]: 90 percent control

CON=C(c1ccccc1COc1ccc(-c2ccccc2)cc1)c1nccn1C (single isomer, unassigned) [144B]
Controlling effect on Sphaerotheca fuliginea by foliage application at 500 ppm (percent control) (Sphaerotheca fuliginea): 70 percent control

CON=C(C1=NCCO1)c1ccccc1Oc1ccc(C(F)(F)F)cn1 [compound 1826]
Controlling effect on Sphaerotheca fuliginea by foliage application at 500 ppm (percent control) (Sphaerotheca fuliginea): 70 percent control

CON=C(c1ccccc1COc1ccccc1)c1nccn1C (single isomer, unassigned) [101A]
Controlling effect on Sphaerotheca fuliginea by foliage application at 500 ppm (percent control) (Sphaerotheca fuliginea): 70 percent control

CON=C(C1=NCCN1C)c1ccccc1COc1cccc(C(F)(F)F)c1 (single isomer, unassigned) [1122A]
Controlling effect on ErYsiphe graminis f. sp. tritici by foliage application at 500 ppm (percent control) [1]: 70 percent control

CON=C(C1=NCCO1)c1ccccc1Oc1ccccc1 (single isomer, unassigned) [1341A]
Controlling effect on ErYsiphe graminis f. sp. tritici by foliage application at 500 ppm (percent control) [1]: 90 percent control
Controlling effect on Sphaerotheca fuliginea by foliage application at 500 ppm (percent control) (Sphaerotheca fuliginea): 70 percent control

CON=C(C1=NCCN1C)c1ccccc1COc1ccc(C)cc1 [compound 1114]
Controlling effect on ErYsiphe graminis f. sp. tritici by foliage application at 500 ppm (percent control) [1]: 70 percent control
Controlling effect on Sphaerotheca fuliginea by foliage application at 500 ppm (percent control) (Sphaerotheca fuliginea): 70 percent control

CON=C(C1=NCCN1C)c1ccccc1COc1ccccc1C(F)(F)F [compound 1121]
Controlling effect on ErYsiphe graminis f. sp. tritici by foliage application at 500 ppm (percent control) [1]: 90 percent control
Controlling effect on Sphaerotheca fuliginea by foliage application at 500 ppm (percent control) (Sphaerotheca fuliginea): 100 percent control

CON=C(C1=NCCO1)c1ccccc1COc1ccccc1Cl [compound 1305]
Controlling effect on Sphaerotheca fuliginea by foliage application at 500 ppm (percent control) (Sphaerotheca fuliginea): 70 percent control

CCON=C(c1ccccc1COc1ccccc1)n1cnc(C)c1 [compound 235]
Controlling effect on ErYsiphe graminis f. sp. tritici by foliage application at 500 ppm (percent control) [1]: 90 percent control

CON=C(C1=NCCN1C)c1ccccc1COc1ccc(C(F)(F)F)cc1 [compound 1123]
Controlling effect on ErYsiphe graminis f. sp. tritici by foliage application at 500 ppm (percent control) [1]: 90 percent control
Controlling effect on Sphaerotheca fuliginea by foliage application at 500 ppm (percent control) (Sphaerotheca fuliginea): 90 percent control

CON=C(c1ccccc1COc1ccc(C)cc1)n1cncn1 [compound 270]
Controlling effect on ErYsiphe graminis f. sp. tritici by foliage application at 500 ppm (percent control) [1]: 90 percent control
Controlling effect on Sphaerotheca fuliginea by foliage application at 500 ppm (percent control) (Sphaerotheca fuliginea): 97 percent control

CON=C(C1=NCCS1)c1ccccc1Oc1ccccc1 (mixture of isomers) [compound 1515]
Controlling effect on ErYsiphe graminis f. sp. tritici by foliage application at 500 ppm (percent control) [1]: 90 percent control
Controlling effect on Sphaerotheca fuliginea by foliage application at 500 ppm (percent control) (Sphaerotheca fuliginea): 70 percent control

CON=C(c1ncon1)c1ccccc1COc1cc(C)ccc1C (single isomer, unassigned) [836A]
Controlling effect on ErYsiphe graminis f. sp. tritici by foliage application at 500 ppm (percent control) [1]: 97 percent control
Controlling effect on Sphaerotheca fuliginea by foliage application at 500 ppm (percent control) (Sphaerotheca fuliginea): 100 percent control

CON=C(c1ccccc1COc1cc(Cl)ccc1Cl)c1nccn1C (single isomer, unassigned) [131B]
Controlling effect on Sphaerotheca fuliginea by foliage application at 500 ppm (percent control) (Sphaerotheca fuliginea): 100 percent control

CON=C(c1nnn(C)n1)c1ccccc1COc1ccccc1C [compound 2012]
Controlling effect on ErYsiphe graminis f. sp. tritici by foliage application at 500 ppm (percent control) [1]: 70 percent control
Controlling effect on Sphaerotheca fuliginea by foliage application at 500 ppm (percent control) (Sphaerotheca fuliginea): 100 percent control

CON=C(c1noc(C)n1)c1cc(Cl)ccc1Oc1ccc(C(F)(F)F)cn1 [compound 2120]
Controlling effect on Sphaerotheca fuliginea by foliage application at 500 ppm (percent control) (Sphaerotheca fuliginea): 70 percent control

CON=C(C1=NCCO1)c1ccccc1Oc1ccccc1 (single isomer, unassigned) [1341B]
Controlling effect on ErYsiphe graminis f. sp. tritici by foliage application at 500 ppm (percent control) [1]: 90 percent control
Controlling effect on Sphaerotheca fuliginea by foliage application at 500 ppm (percent control) (Sphaerotheca fuliginea): 70 percent control

CON=C(c1noc(C)n1)c1ccccc1COc1cc(C)ccc1C (single isomer, unassigned) [936B]
Controlling effect on ErYsiphe graminis f. sp. tritici by foliage application at 500 ppm (percent control) [1]: 90 percent control
Controlling effect on Sphaerotheca fuliginea by foliage application at 500 ppm (percent control) (Sphaerotheca fuliginea): 97 percent control

CON=C(c1ccco1)c1ccccc1COc1cc(C)ccc1C (single isomer, unassigned) [1634A]
Controlling effect on ErYsiphe graminis f. sp. tritici by foliage application at 500 ppm (percent control) [1]: 97 percent control
Controlling effect on Sphaerotheca fuliginea by foliage application at 500 ppm (percent control) (Sphaerotheca fuliginea): 100 percent control

CCON=C(c1ccon1)c1ccccc1COc1ccccc1C (mixture of isomers) [compound 1665]
Controlling effect on ErYsiphe graminis f. sp. tritici by foliage application at 500 ppm (percent control) [1]: 70 percent control

CON=C(C1=NCCN1C)c1ccccc1COc1cccc(C(F)(F)F)c1 (single isomer, unassigned) [1122B]
Controlling effect on ErYsiphe graminis f. sp. tritici by foliage application at 500 ppm (percent control) [1]: 90 percent control
Controlling effect on Sphaerotheca fuliginea by foliage application at 500 ppm (percent control) (Sphaerotheca fuliginea): 100 percent control

CON=C(C1=NCCN1)c1ccccc1COc1ccccc1Cl [compound 1455]
Controlling effect on ErYsiphe graminis f. sp. tritici by foliage application at 500 ppm (percent control) [1]: 70 percent control

CON=C(c1ccccc1COc1ccc(F)cc1)c1nccn1C (single isomer, unassigned) [104A]
Controlling effect on ErYsiphe graminis f. sp. tritici by foliage application at 500 ppm (percent control) [1]: 90 percent control
Controlling effect on Sphaerotheca fuliginea by foliage application at 500 ppm (percent control) (Sphaerotheca fuliginea): 97 percent control

C=CCON=C(c1ccon1)c1ccccc1COc1ccccc1C (mixture of isomers) [compound 1667]
Controlling effect on ErYsiphe graminis f. sp. tritici by foliage application at 500 ppm (percent control) [1]: 70 percent control

CON=C(c1ccccc1COc1cccc(C)c1)c1nccn1C (single isomer, unassigned) [113B]
Controlling effect on Sphaerotheca fuliginea by foliage application at 500 ppm (percent control) (Sphaerotheca fuliginea): 90 percent control

CON=C(c1ccccc1COc1cc(C)ccc1C)c1ccnn1C (single isomer, unassigned) [1554B]
Controlling effect on ErYsiphe graminis f. sp. tritici by foliage application at 500 ppm (percent control) [1]: 70 percent control

CON=C(c1cc(C)ns1)c1ccccc1COc1cc(C)ccc1C [compound 1654]
Controlling effect on ErYsiphe graminis f. sp. tritici by foliage application at 500 ppm (percent control) [1]: 70 percent control

CON=C(c1ccccc1COc1cc(C)ccc1C)n1cccn1 [compound 294]
Controlling effect on Sphaerotheca fuliginea by foliage application at 500 ppm (percent control) (Sphaerotheca fuliginea): 97 percent control

CON=C(c1ccccc1COc1cccc(C(F)(F)F)c1)c1nccn1C (single isomer, unassigned) [122B]
Controlling effect on Sphaerotheca fuliginea by foliage application at 500 ppm (percent control) (Sphaerotheca fuliginea): 100 percent control

CON=C(c1ncno1)c1ccccc1COc1cc(C)ccc1C [compound 1590]
Controlling effect on Sphaerotheca fuliginea by foliage application at 500 ppm (percent control) (Sphaerotheca fuliginea): 70 percent control

CON=C(c1ccco1)c1ccccc1COc1cc(C)ccc1C (single isomer, unassigned) [1634B]
Controlling effect on Sphaerotheca fuliginea by foliage application at 500 ppm (percent control) (Sphaerotheca fuliginea): 70 percent control

CON=C(c1ccccc1COc1ccccc1Cl)n1cncn1 [compound 265]
Controlling effect on ErYsiphe graminis f. sp. tritici by foliage application at 500 ppm (percent control) [1]: 70 percent control
